# Results reported in patent US10709707B2, “Methods of treating ocular conditions” (Oyster Point Pharma, Inc., priority 2016, dated 2020).
# Where two headings read alike, the source gives them in different places.
# What was measured:
# [1] = system: subjects (intranasal administration); test: Panel of compounds administered intranasally: effect on tearing and discomfort response
# Experimental: (§2) A panel of twenty compounds with various receptor binding profiles, including other nicotinic acetylcholine receptor (nAchR) agonists were tested. At the onset of the experiment, 50 microliters of a 0.01 mg/mL compound formulation was administered intranasally to three subjects.
# [2] = excretion of radioactivity in monkey; assay type: in vivo; conditions: for administered radioactive dose recovered in cage wash / administered radioactive dose recovered in diet debris / administered radioactive dose recovered in feces / administered radioactive dose recovered in urine / administered radioactive dose recovered, total: 168-hour period
# [3] = system: cryopreserved hepatocytes from rat, dog, monkey and human; test: 24-hour incubation in cryopreserved hepatocytes, species comparison; assay type: in vitro ADME
# Source text: (§1) In human and monkey, the primary route of metabolism was through oxidation of the pyrrolidine ring (metabolite M02) before further metabolism via dioxidation to M1 or M3. In humans, parent accounted for 37% of extracellular radioactivity, M02 was 13.9%.M1 was 4.1% and M3 was 1.1%. In monkey, parent accounted for 14.2%, M02 was 5.0%, M1 was 5.8% and M3 was 29.4%. In the rat, the primary metabolite is an N-oxide-pyrimidine derivative (M9); it accounted for 71.9% of extracellular radioactivity while parent represented only 1.4%.
# [4] = system: cryopreserved hepatocytes; test: 24-hour incubation in cryopreserved hepatocytes (monkey); assay type: in vitro ADME
# Source text: as §1
# [5] = metabolism in vivo after single po dose in rats; conditions: rat, 30 mg/kg
# Experimental: The main metabolite in plasma and urine was M9; in plasma from 6 to 24 hours post-dose an unknown polar metabolite (M13) accounted for a significant portion of total radioactivity. In plasma, parent accounted for 11.7% of AUC0-24 total radioactivity, M9 accounted for 20.9% and M13 accounted for 15.9%. In urine (the primary route of elimination) over a 24 hours period, parent accounted for 17.8% of total radioactivity, M9 accounted for 37.7% and M13 accounted for 0.7%.
# [6] = distribution studies with [14C]-Compound 1 in Long Evans and Sprague-Dawley rat; assay type: in vivo
# Source text: In male and female Sprague-Dawley rats, tissue distribution appeared similar to that of the Long Evans rat.
# [7] = system: cryopreserved hepatocytes; test: 24-hour incubation in cryopreserved hepatocytes (rat); assay type: in vitro ADME
# Source text: as §1
# [8] = excretion of radioactivity in Sprague-Dawley rat; conditions: 30 mg/kg po
# [9] = system: cryopreserved hepatocytes; test: 24-hour incubation in cryopreserved hepatocytes (human); assay type: in vitro ADME
# Source text: as §1
# [10] = system: subjects (intranasal administration); conditions: in vivo
# Experimental: as §2
# [11] = system: paclitaxel-induced neuropathy, allodynia; test: Reversing symptoms of paclitaxel-induced neuropathy; assay type: in vivo, Rat; conditions: 100 mg/kg ip, 90 min before testing, Weeks 3 and 4 post-paclitaxel
# [12] = system: STZ rat model of diabetic neuropathy; test: Mechanical allodynia, STZ rat model of diabetic neuropathy; assay type: in vivo, Rat: Sprague-Dawley; conditions: insulin-treated group
# [13] = system: behavioral sensitization; test: CNS safety pharmacology, behavioral sensitization by motor activity; assay type: in vivo, Rat: Sprague-Dawley; conditions: Compound 1 3, 10, 30 mg/kg po
# [14] = system: formalin test; test: Analgesic effects, formalin test; assay type: in vivo, Mouse: CD-1; conditions: Compound 1 0.1, 1 and 10 mg/kg, Aspirin 100 mg/kg, Morphine 30 mg/kg; for analgesic effects after formalin injection, Day 1: po
# [15] = 50 microliters intranasally, three subjects, 0.01 mg/mL increased logarithmically up to 10 mg/mL
molecule,measurement,setting,value
CC(C)=C1CC[C@@H](C)CC1=O [Pulegone],Causes Tearing,[1]; [15],No
same,Discomfort Response,[1]; in vivo,No
O=C(N[C@@H]1C2CCN(CC2)[C@H]1Cc1cccnc1)c1cc(F)cc(F)c1 [TC-6987],Causes Tearing,[1]; [15],No
same,Discomfort Response,[1]; [15],No
O=Cc1ccccc1 [Benzaldehyde],Causes Tearing,[1]; [15],No
same,Discomfort Response,[1]; [15],No
CC12CCC(CC1=O)C2(C)C (stereo not drawn) [Camphor],Causes Tearing,[1]; [15],No
same,Discomfort Response,[1]; [15],No
CC1CCC(C(C)C)C(O)C1 (stereo not drawn) [Menthol],Causes Tearing,[1]; [15],No
same,Discomfort Response,[1]; [15],No
c1cnc2cc3c(cc2n1)[C@@H]1CNC[C@H]3C1 [Varenicline],Causes Tearing,[1]; [15],Yes
same,Discomfort Response,[1]; [15],No
C(=C\[C@H]1CCNC1)/c1cncnc1 [[^14C]-Compound 1],time by which nearly all recovered radioactivity was eliminated,[2]; 5 mg/kg iv infusion,≤ 24 h
same,administered radioactive dose recovered in cage wash,[2]; 5 mg/kg iv infusion,7.6%
same,administered radioactive dose recovered in diet debris,[2]; 5 mg/kg iv infusion,6.9%
same,administered radioactive dose recovered in feces,[2]; 5 mg/kg iv infusion,7.6%
same,administered radioactive dose recovered in urine,[2]; 5 mg/kg iv infusion,70.7%
same,"administered radioactive dose recovered, total",[2]; 5 mg/kg iv infusion,93.0%
same,time by which nearly all recovered radioactivity was eliminated,[2]; 10 mg/kg po,≤ 48 h
same,administered radioactive dose recovered in cage wash,[2]; 10 mg/kg po,10.2%
same,administered radioactive dose recovered in diet debris,[2]; 10 mg/kg po,6.6%
same,administered radioactive dose recovered in feces,[2]; 10 mg/kg po,12.8%
same,administered radioactive dose recovered in urine,[2]; 10 mg/kg po,60.7%
same,"administered radioactive dose recovered, total",[2]; 10 mg/kg po,90.3%
same,species ranking of metabolism,[3],rat>monkey>human>dog
same,extent of metabolism,[3]; depending on species,slightly to moderately metabolized
same,share of extracellular radioactivity,[4],14.2%
same,extent of metabolism in vivo,[5],extensively metabolized
same,share of AUC0-24 total radioactivity in plasma,[5],11.7%
same,share of total radioactivity in urine,[5],17.8%
same,tissue with highest concentration of radioactivity at final sampling time,"[6]; male Long Evans rat, 1 mg/kg po, 168 hours",adrenal medulla
same,tissue with highest concentration of radioactivity at final sampling time,"[6]; male and female Sprague-Dawley rats, 30 mg/kg po, 24 hours",adrenal medulla
same,share of extracellular radioactivity,[7],1.4%
same,time by which nearly all recovered radioactivity was eliminated,[8],≤ 24 h
same,administered dose recovered in feces,[8]; 168 hour period,10.9%
same,administered dose recovered in urine,[8]; 168 hour period,77.6%
same,"administered dose recovered, total",[8]; 168 hour period post-dose,91.2%
same,share of extracellular radioactivity,[9],37%
COc1cc(CNC(=O)CCCC/C=C/C(C)C)ccc1O [Capsaicin],Causes Tearing,[1]; [15],Yes
same,Discomfort Response,[1]; [15],Severe
O=C(N[C@H]1CN2CCC1CC2)c1cc2ccoc2cn1 [PHA-543613],Causes Tearing,[1]; [15],No
same,Discomfort Response,[1]; [15],No
C=CCc1ccc(O)c(OC)c1 [Eugenol],Causes Tearing,[1]; [15],No
same,Discomfort Response,[1]; [15],No
CC12CCC(CC1)C(C)(C)O2 [Eucaliptol],Causes Tearing,[1]; [15],No
same,Discomfort Response,[1]; [15],No
O=c1cccc2n1C[C@@H]1CNC[C@H]2C1 [Cytisine],Discomfort Response,[10],Moderate
same,Causes Tearing,[1]; in vivo,Partial
Cc1cc([C@@H]2CCCN2C)on1 [ABT-418],Causes Tearing,[1]; [15],Yes
same,Discomfort Response,[1]; [15],Moderate
Cc1ccc(C(C)C)cc1O [Carvacrol],Causes Tearing,[1]; [15],Yes
same,Discomfort Response,[1]; in vivo,Severe
COc1ccc(/C=C2\CCCN=C2c2cccnc2)c(OC)c1 [GTS-21],Causes Tearing,[1]; [15],Yes
same,Discomfort Response,[1]; [15],Severe
CNCCc1ccccn1 [Betahistine],Causes Tearing,[1]; [15],No
same,Discomfort Response,[1]; [15],No
"NCC1(CC(=O)O)CCCCC1 [Gabapentin, reference compound]",reversing allodynia,[11],"100 mg/kg, was effective at reversing"
CCOc1cc(C=O)ccc1O [Ethylvanillin],Causes Tearing,[1]; [15],No
insulin: insulin-treated group in the STZ rat model,significant improvement in pain sensitivity,[12],glucose levels but no
CN1CCCC1c1cccnc1 (stereo not drawn) [Nicotine],Discomfort Response,[10],Severe
same,behavioral sensitization (motor activity),[13],marked behavioral sensitization.
same,Causes Tearing,[1]; [15],Yes
CC(C)=CCC/C(C)=C/CO [Geraniol],Causes Tearing,[1]; [15],No
same,Discomfort Response,[1]; [15],No
CN1CC[C@]23c4c5ccc(O)c4O[C@H]2[C@@H](O)C=C[C@H]3[C@H]1C5 [Morphine],"analgesic activity after formalin injection, Day 7",[14]; once daily for 7 days po,mg/kg) persisted on Day 7.
same,"analgesic effects after formalin injection, Day 1",[14],"mg/kg, po) produced a significant"
CC(=O)Oc1ccccc1C(=O)O [Aspirin],"analgesic effects after formalin injection, Day 1",[14],mg/kg) and Aspirin at 100 mg/kg failed
CC[N+](CC)(CC(=O)Nc1c(C)cccc1C)Cc1ccccc1 [Denatonium],Causes Tearing,[1]; [15],No
same,Discomfort Response,[1]; [15],No
